Experimental data published in BindingDB's records for doi:10.3109/14756360903179435 (Jamia Hamdard, 2010).

What was measured:
[1] = biological target: T1, Prostaglandin G/H synthase 1 (Ovis aries, UniProt P05979); test: In Vitro Cyclo-Oxygenase Inhibition Assay
T1 sequence (P05979 whole entry): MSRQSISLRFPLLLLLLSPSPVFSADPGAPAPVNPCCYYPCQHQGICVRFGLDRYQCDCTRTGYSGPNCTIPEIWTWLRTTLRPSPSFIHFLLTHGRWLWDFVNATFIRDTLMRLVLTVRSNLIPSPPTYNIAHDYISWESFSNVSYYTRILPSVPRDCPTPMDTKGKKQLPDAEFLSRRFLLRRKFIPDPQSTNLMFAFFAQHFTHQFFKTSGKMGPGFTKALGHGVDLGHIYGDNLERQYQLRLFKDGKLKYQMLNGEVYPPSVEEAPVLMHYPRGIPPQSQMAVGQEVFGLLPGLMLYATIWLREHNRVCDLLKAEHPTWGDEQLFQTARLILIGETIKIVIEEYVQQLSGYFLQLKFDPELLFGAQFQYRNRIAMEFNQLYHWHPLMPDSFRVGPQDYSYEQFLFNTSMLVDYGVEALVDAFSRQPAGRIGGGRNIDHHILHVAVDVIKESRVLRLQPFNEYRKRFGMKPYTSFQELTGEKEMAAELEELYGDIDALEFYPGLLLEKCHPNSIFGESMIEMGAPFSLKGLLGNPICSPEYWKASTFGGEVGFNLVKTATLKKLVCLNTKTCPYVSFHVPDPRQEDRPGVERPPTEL
Description: (§1) Inhibition of the enzymes was determined using an enzyme immunoassay (EIA) kit (catalog no. 560101, Cayman Chemical, Ann Arbor, MI, USA) according to the methodology described by Jashim Uddin et al. [Jashim Uddin et al., Bioorg. Med. Chem., 12:5929-40].

[2] = biological target: T2, Prostaglandin G/H synthase 2 (Ovis aries, UniProt P79208); test: In Vitro Cyclo-Oxygenase Inhibition Assay
T2 sequence (P79208 whole entry): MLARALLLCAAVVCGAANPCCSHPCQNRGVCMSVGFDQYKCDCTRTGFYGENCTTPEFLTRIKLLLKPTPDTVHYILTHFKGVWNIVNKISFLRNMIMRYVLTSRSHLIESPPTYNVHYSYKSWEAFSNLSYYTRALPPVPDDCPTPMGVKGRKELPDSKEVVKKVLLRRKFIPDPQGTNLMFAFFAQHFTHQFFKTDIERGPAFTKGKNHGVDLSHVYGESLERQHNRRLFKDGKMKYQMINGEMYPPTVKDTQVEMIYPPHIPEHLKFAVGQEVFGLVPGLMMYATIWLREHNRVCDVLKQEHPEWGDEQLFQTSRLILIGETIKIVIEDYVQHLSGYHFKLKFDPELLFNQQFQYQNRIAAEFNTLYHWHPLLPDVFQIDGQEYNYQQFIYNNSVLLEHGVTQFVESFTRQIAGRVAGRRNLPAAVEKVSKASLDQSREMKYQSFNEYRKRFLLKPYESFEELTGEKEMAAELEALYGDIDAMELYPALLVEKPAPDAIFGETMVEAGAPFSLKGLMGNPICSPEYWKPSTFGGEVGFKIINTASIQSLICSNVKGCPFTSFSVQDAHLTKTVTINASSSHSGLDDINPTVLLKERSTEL
Description: as §1

Row | IC50 [1] [µM] | IC50 [2] [nM] | Structure (SMILES)
1 | 47.6 | 1800 | CC(C)Cc1ccc(C2=C/C(=C\c3c(Cl)cccc3Cl)C(=O)O2)cc1 [3-(2,6-Dichlorobenzylidene)-5-(4-isobutylphenyl)-2(3H)-furanone (13)]
2 | 68.3 | 3800 | CC(C)Cc1ccc(C2=C/C(=C\c3ccc(F)cc3)C(=O)O2)cc1 [3-(4-Fluorobenzylidene)-5-(4-isobutylphenyl)-2(3H)-furanone (9)]
3 | 48.2 | 2200 | CC(C)Cc1ccc(C2=C/C(=C\c3ccc(Cl)cc3Cl)C(=O)O2)cc1 [3-(2,4-Dichlorobenzylidene)-5-(4-isobutylphenyl)-2(3H)-furanone (14)]
4 | 52.4 | 2400 | CC(C)Cc1ccc(C2=C/C(=C\c3ccccc3Cl)C(=O)O2)cc1 [3-(2-Chlorobenzylidene)-5-(4-isobutylphenyl)-2(3H)-furanone (3)]
